Experimental data reported in US12247004B2, “2-amino-N-(amino-oxo-aryl-lambda6-sulfanylidene)acetamide compounds and their therapeutic use” (Oxford Drug Design Limited, priority 2019, dated 2025).
Values after ≈ are worked out from the molar mass of the structure shown. Counter-ions that a name gives are not always drawn. Like-named read-outs stand apart in the source and are kept apart here.

Experiments:
[1] = target: Leucyl-tRNA synthetase (LeuRS) (Escherichia coli (strain K12), UniProt P07813); test: Leucyl-tRNA synthetase enzyme inhibition (AMP-Glo; single point % inhibition at 100 μM and IC50); type: biochemical
[2] = Human cell viability / cytotoxicity (CellTiter-Glo, 24 hours); type: cell-based; conditions: human, HepG2 cells (ATCC HB-8065); HepG2 ATCC HB-8065, 24 hours; read-out: Cytotoxicity in HepG2 ATCC HB-8065 Cell Line, IC50
Experimental: Study 3—Human Cell Viability
Compounds were assessed for potential non-specific cytotoxic effects against a human hepatic cell line (HepG2 ATCC HB-8065). 96-well plates were seeded with HepG2 cells in concentration of 15,000 cells per well in 100 μL of MEM growth media completed with 1% NEAA and 1% sodium pyruvate. Border wells were filled with 100 μL of sterile PBS. Two days upon cells incubation, the compounds were added. Compound dilutions were prepared in 96-well V-bottom plate in pure DMSO. Growth media from 5 plates were aspirated and replaced with 98.7 μL of fresh growth media. 1.28 μL of compounds prepared in V-bottom plates were transferred with multichannel pipette into test plates (78.1× dilution). Final DMSO concentration was 1.28% per well. In control wells, 1.28 μL of DMSO was added in 98.7 μL of media. Compounds were tested in duplicates. Cells were incubated with compounds for 24 hours when cell viability was assessed by measuring ATP levels. ATP levels were measured by adding 50 μL of CellTiter-Glo reagent to each well and after 5 minutes of incubation luminescence was measured with SpectraMax i3. The potential effect of tested compounds on cell viability was determined by comparing the signal obtained in presence of different concentrations of the compounds with those obtained in the presence of DMSO only. The potential effects were then calculated and presented as IC50 values (μg/mL).

[3] = test system: bacteria (ATCC reference strains); test: Antibacterial activity, MIC by broth micro-dilution (CLSI)
[4] = E. coli LeuRS, read-out: Enzyme Inhibition - IC50, E. coli LeuRS
[5] = Acinetobacter baumannii, read-out: Antibacterial Activity (MIC), E = A. baumannii B1931
[6] = Enterobacter cloacae, read-out: Antibacterial Activity (MIC), B = Enterobacter cloacae B1966
[7] = Escherichia coli, ATCC25922, read-out: Antibacterial Activity (MIC), A = E. coli ATCC 25922
[8] = Haemophilus influenzae, ATCC49247, read-out: Antibacterial Activity (MIC), F = H. influenzae ATCC 49247
[9] = Klebsiella pneumoniae, ATCC700603, read-out: Antibacterial Activity (MIC), C = K. pneumoniae ATCC 700603
[10] = Pseudomonas aeruginosa, ATCC27853, read-out: Antibacterial Activity (MIC), D = P. aeruginosa ATCC 27853
[11] = Escherichia coli, BAA2469, read-out: Antibacterial Activity (MIC), G = E. coli BAA-2469

Chain of Leucyl-tRNA synthetase (LeuRS) (P07813 whole entry, looked up): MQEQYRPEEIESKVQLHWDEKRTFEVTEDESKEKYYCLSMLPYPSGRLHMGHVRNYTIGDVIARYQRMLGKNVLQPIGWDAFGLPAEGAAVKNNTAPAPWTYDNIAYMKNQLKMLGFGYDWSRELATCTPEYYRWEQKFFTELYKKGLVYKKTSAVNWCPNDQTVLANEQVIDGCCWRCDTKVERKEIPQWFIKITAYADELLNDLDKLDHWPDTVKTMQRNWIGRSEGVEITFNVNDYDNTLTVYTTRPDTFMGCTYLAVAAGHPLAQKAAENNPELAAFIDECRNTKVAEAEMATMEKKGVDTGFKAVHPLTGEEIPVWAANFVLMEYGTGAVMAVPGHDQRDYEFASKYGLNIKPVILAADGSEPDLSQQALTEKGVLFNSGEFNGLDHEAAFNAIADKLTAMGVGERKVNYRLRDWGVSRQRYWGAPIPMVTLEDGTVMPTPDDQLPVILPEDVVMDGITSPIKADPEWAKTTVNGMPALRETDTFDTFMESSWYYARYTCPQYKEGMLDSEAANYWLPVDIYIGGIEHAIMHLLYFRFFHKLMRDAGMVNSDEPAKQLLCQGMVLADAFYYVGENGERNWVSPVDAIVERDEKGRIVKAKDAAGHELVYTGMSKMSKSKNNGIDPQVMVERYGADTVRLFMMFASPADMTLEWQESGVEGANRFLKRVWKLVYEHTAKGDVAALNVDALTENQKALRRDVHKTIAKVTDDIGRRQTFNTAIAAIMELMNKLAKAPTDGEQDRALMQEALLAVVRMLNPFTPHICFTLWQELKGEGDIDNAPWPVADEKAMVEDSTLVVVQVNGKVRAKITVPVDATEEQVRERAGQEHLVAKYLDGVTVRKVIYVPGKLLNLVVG

Row | Compound | IC50 [1, 4] [nM] | IC50 at 24 h [2] [µg/mL] | MIC [3, 5] [µg/mL] | MIC [3, 6] [µg/mL] | MIC [3, 7] [µg/mL] | MIC [3, 8] [µg/mL] | MIC [3, 9] [µg/mL] | MIC [3, 10] [µg/mL] | IC50 [1] [nM] | MIC [3, 11] [µg/mL]
1 | CC(C)C[C@H](N)C(=O)N=S(N)(=O)c1cccc(Cl)c1F (stereo partly drawn) [ANASIA-001, (2S)-2-amino-N-(amino(3-chloro-2-fluorophenyl)(oxo)-λ6-sulfanylidene)-4-methylpentanamide 2,2,2-trifluoroacetate] | 429 | > 64 | > 64 | > 64 | 32 (≈ 99.4 µM) | > 64 | > 64 | > 64 |  | 
2 | CC(C)C[C@H](N)C(=O)N=[S@](N)(=O)c1cccc(Cl)c1F.Cl [ANASIA-001-1] |  | > 64 | > 64 | > 64 | 16 | 32 | > 64 | > 64 | 535 | 
3 | CC(C)C[C@H](N)C(=O)N=[S@](N)(=O)c1cccc(Cl)c1.Cl [ANASIA-002-1] |  | > 64 | 32 | 8 | 1 | 2 | 32 | > 64 | 27.5 | 4
4 | CC(C)C[C@H](N)C(=O)N=[S@@](N)(=O)c1cccc(Cl)c1.Cl [ANASIA-002-2] | 1050 | > 64 | > 64 | > 64 | 64 | > 64 | > 64 | > 64 |  | 
5 | CC(C)C[C@H](N)C(=O)N=S(N)(=O)c1cccc(Cl)c1 (stereo partly shown) [ANASIA-002] | 110 | > 64 | > 45.3 | > 45.3 | 2.83 (≈ 9.31 µM) | 5.66 (≈ 18.6 µM) | > 22.6 | > 64 |  | 
6 | CC(C)C[C@H](N)C(=O)N=[S@](N)(=O)c1ccccc1.Cl [ANASIA-003-1, (S)-2-amino-N—((S)-amino(oxo)(phenyl)-λ6-sulfanylidene)-4-methylpentanamide hydrochloride] | 61.5 | > 64 | 64 | 16 | 4 | 8 | 16 | 64 |  | 
7 | CC(C)C[C@H](N)C(=O)N=S(N)(=O)c1ccccc1 (stereo partly shown) [ANASIA-003] | 92.9 | > 64 | 32 (≈ 119 µM) | 16 (≈ 59.4 µM) | 2.83 (≈ 10.5 µM) | 16 (≈ 59.4 µM) | 8 (≈ 29.7 µM) | 50.8 (≈ 189 µM) |  | 
8 | Cc1csc(S(N)(=O)=NC(=O)[C@@H](N)CC(C)C)n1 (stereo partly drawn) [ANASIA-004, (2S)-2-amino-N-(amino(4-methylthiazol-2-yl)(oxo)-λ6-sulfanylidene)-4-methyl pentanamide hydrochloride] | 91.6 | > 64 | 64 | > 64 | 16 | 8 | > 64 | 64 |  | 
9 | Cc1cccc([S@](N)(=O)=NC(=O)[C@@H](N)CC(C)C)c1 [ANASIA-005-2] | 151 | > 64 | > 64 | 64 (≈ 226 µM) | 8 (≈ 28.2 µM) | 16 (≈ 56.5 µM) | > 64 | > 64 |  | 32 (≈ 113 µM)
10 | Cc1cccc(S(N)(=O)=NC(=O)[C@@H](N)CC(C)C)c1 (stereo partly shown) [ANASIA-005] | 381 | > 64 | 64 (≈ 226 µM) | 32 (≈ 113 µM) | 8 (≈ 28.2 µM) | 32 (≈ 113 µM) | 32 (≈ 113 µM) | > 64 |  | 
11 | CC(C)C[C@H](N)C(=O)N=S(N)(=O)c1cccnc1 (stereo partly shown) [ANASIA-006] | 708 | > 64 | > 64 | > 64 | 64 (≈ 237 µM) | > 64 | > 64 | > 64 |  | 
12 | CC(C)C[C@H](N)C(=O)N=[S@](N)(=O)c1ccsc1.Cl [ANASIA-008-1] |  | > 64 | 32 | 8 | 2 | 4 | 8 | 32 | 30.6 | 
13 | CC(C)C[C@H](N)C(=O)N=S(N)(=O)c1ccsc1 (stereo partly shown) [ANASIA-008] | 144 | > 64 | 32 (≈ 116 µM) | 16 (≈ 58.1 µM) | 2 (≈ 7.26 µM) | 16 (≈ 58.1 µM) | 8 (≈ 29 µM) | 32 (≈ 116 µM) |  | 
